The target in test [1] is T1, Mcl-1 protein (residues 171-323) (Homo sapiens, UniProt Q07820).
T1 construct: Tag-free Mcl-1 protein (residues 171-323) was used in the FP assay
In words: Inhibition of Mcl-1 by fluorescence polarization (FP) competitive binding assay with FAM-Bid tracer. Particulars: 2 nM FAM-Bid, 20 nM Mcl-1, 30 min. An outline of the steps:
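Tag-free Mcl-1 (20 nM) with 2 nM FAM-Bid peptide in PBS, 0.01% BGG, 0.01% Triton X-100, 5% DMSO, 30 min at room temperature. FP read at Ex 485/Em 528 nm. IC50 from 10-point curves normalised to DMSO and no-protein controls.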
Background: Fluorescence polarisation rises when a labelled molecule tumbles more slowly, as on binding a larger partner.

Another test concerns OPM-2 cells. In words: Cell viability assay (OPM-2 cells), CCK-8. The settings on record: 5% FBS. Type of test: cell-based. An outline of the steps:
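OPM-2 myeloma cells (20000/well) exposed to serially diluted compound for 24 h at 37 °C, 5% CO2, then incubated 4 h with CCK-8 and read at 450 nm. Readings normalized to vehicle; IC50 from nonlinear regression.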

The next test relates to NCI-H929 cells. The experiment in a line: Cell viability assay (NCI-H929 cells), CCK-8. The format is cell-based. The settings on record: 5% FBS. The method in brief: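 NCI-H929 cells from ATCC were seeded at 20000 cells/well in 95 μL of culture medium in 96-well plates and grown for 4 hrs. Compounds, serially diluted in DMSO and further diluted in medium, were added as 5 μL, and cells were incubated for 24 hrs at 37° C. with 5% CO2. Viability was measured with CCK-8.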

One may read the IC50 as the concentration at which inhibition is half-maximal.

The structures appear in SMILES notation.

T1 sequence (Q07820 171-323): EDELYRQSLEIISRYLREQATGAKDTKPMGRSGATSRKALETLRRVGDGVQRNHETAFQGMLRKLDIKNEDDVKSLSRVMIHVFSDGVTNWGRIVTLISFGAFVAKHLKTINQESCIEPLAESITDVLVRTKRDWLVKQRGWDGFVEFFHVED

Regarding `CO[C@@]1(CN2CCN(C)CC2)C2=C[C@@H](C2)[C@H](C)[C@@H](C)S(=O)(=O)NC(=O)c2ccc3c(c2)N(C[C@@H]2CC[C@H]21)C[C@@]1(CCCc2c1ccc(Cl)c2F)CO3` [compound 35, (1S,11′R,12′S,13′R,16′R,16a′R,18a′R,E)-6-chloro-5-fluoro-16′-methoxy-11′,12′-dimethyl-16′-((4-methylpiperazin-1-yl)methyl)-3,4,12′,13′,16′,16a′,17′,18′,18a′,19′-decahydro-1′H,2H,3′H, 11′H-spiro[naphthalene-1,2′-[5,7]etheno[13,15]methanocyclobuta[i][1,4]oxazepino[3,4-f][1]thia[2,7]diazacyclohexadecin]-8′(9′H)-one 10′,10′-dioxide], the half-inhibitory concentration (IC50) was determined as 14 nM in test [1]; 32 nM with OPM-2 cells (Homo sapiens, OPM-2, 24 h); 2.4 nM in the test with NCI-H929 cells (Homo sapiens, NCI-H929, 24 h).

On to `CO[C@H]1C2=CC(C2)[C@@H](C)[C@H](C)S(=O)(=O)NC(=O)c2ccc3c(c2)N(C[C@@H]2CC[C@H]21)C[C@@]1(CCCc2cc(Cl)ccc21)CO3` (single isomer, unassigned) [12 (Isomer 2)], for which the 50% inhibitory concentration (IC50) in test [1] amounted to 15 nM; in the test on OPM-2 cells (24 h), 12300 nM; in the test on NCI-H929 cells (24 h), 4600 nM.

Take `CO[C@@]1(CN2CCNC(=O)C2)C2=C[C@@H](C2)[C@H](C)[C@@H](C)S(=O)(=O)NC(=O)c2ccc3c(c2)N(C[C@@H]2CC[C@H]21)C[C@@]1(CCCc2c1ccc(Cl)c2F)CO3` [compound 42, (1S,11′R,12′S,13′R,16′R,16a′R,18a′R,E)-6-chloro-5-fluoro-16′-methoxy-11′,12′-dimethyl-16′-((3-oxopiperazin-1-yl)methyl)-3,4,12′,13′,16′,16a′,17′,18′,18a′,19′-decahydro-1′H,2H,3′H, 11′H-spiro[naphthalene-1,2′-[5,7]etheno[13,15]methanocyclobuta[i][1,4]oxazepino[3,4-f][1]thia[2,7]diazacyclohexadecin]-8′(9′H)-one 10′,10′-dioxide]: the IC50 came to 13 nM in test [1]; 66 nM with OPM-2 cells (Homo sapiens, OPM-2, 24 h); 51 nM in the test on NCI-H929 cells (Homo sapiens, NCI-H929, 24 h).

Regarding `CO[C@@H]1C2=CC(C2)[C@H](C)N(C)S(=O)(=O)NC(=O)c2ccc3c(c2)N(C[C@@H]2CC[C@H]21)C[C@@]1(CCCc2cc(Cl)ccc21)CO3` (single isomer, unassigned) [27 (isomer 1)], the IC50 in test [1] was 13 nM; with OPM-2 cells (24 h), 1440 nM; in the test on NCI-H929 cells (24 h) it was 1600 nM.

On to `C[C@@H]1[C@@H](C)S(=O)(=O)NC(=O)c2ccc3c(c2)N(C[C@@H]2CC[C@H]2[C@](O)(CN2CCN4CCOC[C@@H]4C2)C2=C[C@H]1C2)C[C@@]1(CCCc2c1ccc(Cl)c2F)CO3` [compound 47, (1S,11′R,12′S,13′R,16′R,16a′R,18a′R,E)-6-chloro-5-fluoro-16′-(((S)-hexahydropyrazino[2,1-c][1,4]oxazin-8(1H)-yl)methyl)-16′-hydroxy-11′,12′-dimethyl-3,4,12,′13′,16′,16a′,17′,18′,18a′,19′-decahydro-1′H,2H,3′H,11′H-spiro[naphthalene-1,2′-[5,7]etheno[13,15]methanocyclobuta[i][1,4]oxazepino[3,4-f][1]thia[2,7]diazacyclohexadecin]-8′(9′H)-one 10′,10′-dioxide], for which the half-inhibitory concentration (IC50) stood at 13 nM in test [1]; 32 nM with OPM-2 cells (Homo sapiens, OPM-2, 24 h); 5.8 nM with NCI-H929 cells (Homo sapiens, NCI-H929, 24 h).

`CC(C)[C@@H]1C2=C[C@@H](C2)[C@H](C)[C@@H](C)S(=O)(=O)NC(=O)c2ccc3c(c2)N(C[C@@H]2CC[C@H]21)C[C@@]1(CCCc2c1ccc(Cl)c2F)CO3` [compound 55, (1S,11′R,12′S,13′R,16′S,16a′S,18a′R)-6-chloro-5-fluoro-16′-isopropyl-11′,12′-dimethyl-3,4,12′,13′,16′,16a′,17′,18′,18a′,19′-decahydro-1′H,2H,3′H,11′H-spiro[naphthalene-1,2′-[5,7]etheno[13,15]methanocyclobuta[i][1,4]oxazepino[3,4-f][1]thia[2,7]diazacyclohexadecin]-8′(9′H)-one 10′,10′-dioxide]: the half-inhibitory concentration (IC50) in test [1] came to 13 nM; with OPM-2 cells (Homo sapiens, OPM-2, 24 h), 1010 nM; in the test on NCI-H929 cells (Homo sapiens, NCI-H929, 24 h) it was 1000 nM.

`CO[C@H]1C2=CC(C2)CC(C)S(=O)(=O)NC(=O)c2ccc3c(c2)N(C[C@@H]2CC[C@H]21)C[C@@]1(CCCc2cc(Cl)ccc21)CO3` (mixture of isomers) [11 (mixture)]: the half-maximal inhibitory concentration (IC50) in test [1] was 5.5 nM; in the test with OPM-2 cells (Homo sapiens, OPM-2, 24 h) it was 967 nM; in the test on NCI-H929 cells (Homo sapiens, NCI-H929, 24 h), 270 nM.

For `CO[C@H]1C2CC(C2)[C@H](C)CS(=O)(=O)NC(=O)c2ccc3c(c2)N(C[C@@H]2CC[C@H]21)C[C@@]1(CCCc2cc(Cl)ccc21)CO3` [compound 3], the half-inhibitory concentration (IC50) in test [1] was 8 nM; with OPM-2 cells (Homo sapiens, OPM-2, 24 h) it was 5450 nM; in the test on NCI-H929 cells (Homo sapiens, NCI-H929, 24 h) it was 3000 nM.

As for `CO[C@H]1C2=CC(C2)[C@H](C)N(C)S(=O)(=O)NC(=O)c2ccc3c(c2)N(C[C@@H]2CC[C@H]21)C[C@@]1(CCCc2cc(Cl)ccc21)CO3` (single isomer, unassigned) [26 (isomer 1)], the IC50 in test [1] came to 14 nM; in the test on OPM-2 cells (24 h), 412 nM; with NCI-H929 cells (24 h), 160 nM.

Take `CO[C@@]1(CN2CCN(C)C(=O)C2)C2=C[C@@H](C2)[C@H](C)[C@@H](C)S(=O)(=O)NC(=O)c2ccc3c(c2)N(C[C@@H]2CC[C@H]21)C[C@@]1(CCCc2c1ccc(Cl)c2F)CO3` [compound 39, (1S,11′R,12′S,13′R,16′R,16a′R,18a′R,E)-6-chloro-5-fluoro-16′-methoxy-11′,12′-dimethyl-16′-((4-methyl-3-oxopiperazin-1-yl)methyl)-3,4,12′,13′,16′,16a′,17′,18′,18a′,19′-decahydro-1′H,2H,3′H, 11′H-spiro[naphthalene-1,2′-[5,7]etheno[13,15]methanocyclobuta[i][1,4]oxazepino[3,4-f][1]thia[2,7]diazacyclohexadecin]-8′(9′H)-one 10′,10′-dioxide]: the IC50 amounted to 14 nM in test [1]; 62 nM in the test with OPM-2 cells (Homo sapiens, OPM-2, 24 h); 7.7 nM in the test on NCI-H929 cells (Homo sapiens, NCI-H929, 24 h).

In the case of `CO[C@H]1C2CC(C2)[C@H](C)N(C)S(=O)(=O)NC(=O)c2ccc3c(c2)N(C[C@@H]2CC[C@H]21)C[C@@]1(CCCc2cc(Cl)ccc21)CO3` [Cpd. No. 28, (1S,12′S,16′S,16a′R,18a′R)-6-chloro-16′-methoxy-11′,12′-dimethyl-3,4,12′,13′,14′,15′,16′,16a′,17′,18′,18a′,19′-dodecahydro-1′H,2H,3′H,11′H-spiro[naphthalene-1,2′-[5,7]etheno[13,15]methanocyclobuta[i][1,4]oxazepino[3,4-f][1]thia[2,7,16]triazacyclohexadecin]-8′(9′H)-one 10′,10′-dioxide], the half-inhibitory concentration (IC50) in test [1] came to 14 nM; with OPM-2 cells (Homo sapiens, OPM-2, 24 h), 1500 nM; in the test with NCI-H929 cells (Homo sapiens, NCI-H929, 24 h), 1300 nM.

For the compound `C[C@@H]1[C@@H](C)S(=O)(=O)NC(=O)c2ccc3c(c2)N(C[C@@H]2CC[C@H]2[C@](O)(CN2CCN4CCOC[C@H]4C2)C2=C[C@H]1C2)C[C@@]1(CCCc2c1ccc(Cl)c2F)CO3` [compound 48, (1S,11′R,12′S,13′R,16′R,16a′R,18a′R,E)-6-chloro-5-fluoro-16′-(((R)-hexahydropyrazino[2,1-c][1,4]oxazin-8(1H)-yl)methyl)-16′-hydroxy-11′,12′-dimethyl-3,4,12,′13′,16′,16a′,17′,18′,18a′,19′-decahydro-1′H,2H,3′H,11′H-spiro[naphthalene-1,2′-[5,7]etheno[13,15]methanocyclobuta[i][1,4]oxazepino[3,4-f][1]thia[2,7]diazacyclohexadecin]-8′(9′H)-one 10′,10′-dioxide], the IC50 in test [1] is 18 nM; with OPM-2 cells (Homo sapiens, OPM-2, 24 h), 69 nM; with NCI-H929 cells (Homo sapiens, NCI-H929, 24 h), 28 nM.

As for `C[C@@H]1[C@@H](C)S(=O)(=O)NC(=O)c2ccc3c(c2)N(C[C@@H]2CC[C@H]2[C@@H](OCCN2C[C@@H](C)N[C@@H](C)C2)C2=C[C@H]1C2)C[C@@]1(CCCc2c1ccc(Cl)c2F)CO3` [compound 83, (1S,11′R,12′S,13′R,16′R,16a′R,18a′R,E)-6-chloro-16′-(2-((3 S,5R)-3,5-dimethylpiperazin-1-yl)ethoxy)-5-fluoro-11′,12′-dimethyl-3,4,12,′13′,16′,16a′,17′,18′,18a′,19′-decahydro-1′H,2H,3′H,11′H-spiro[naphthalene-1,2′-[5,7]etheno[13,15]methanocyclobuta[i][1,4]oxazepino[3,4-f][1]thia[2,7]diazacyclohexadecin]-8′(9′H)-one 10′,10′-dioxide], the IC50 in test [1] worked out at 25 nM; in the test on OPM-2 cells (Homo sapiens, OPM-2, 24 h), 164 nM; in the test with NCI-H929 cells (Homo sapiens, NCI-H929, 24 h), 220 nM.

With `C[C@@H]1[C@@H](C)S(=O)(=O)NC(=O)c2ccc3c(c2)N(C[C@@H]2CC[C@H]2[C@@H](OCCN2CCN(C)CC2=O)C2=C[C@H]1C2)C[C@@]1(CCCc2c1ccc(Cl)c2F)CO3` [compound 91, (1S,11′R,12′S,13′R,16′R,16a′R,18a′R)-6-chloro-5-fluoro-11′,12′-dimethyl-16′-(2-(4-methyl-2-oxopiperazin-1-yl)ethoxy)-3,4,12′,13′,16′,16a′,17′,18′,18a′,19′-decahydro-1′H,2H,3′H,11′H-spiro[naphthalene-1,2′-[5,7]etheno[13,15]methanocyclobuta[i][1,4]oxazepino[3,4-f][1]thia[2,7]diazacyclohexadecin]-8′(9′H)-one 10′,10′-dioxide], the IC50 in test [1] was determined as 15 nM; with OPM-2 cells (Homo sapiens, OPM-2, 24 h), 59 nM; with NCI-H929 cells (Homo sapiens, NCI-H929, 24 h) it was 16 nM.

(Values after patent US11498928B2, “Macrocyclic spiroethers as Mcl-1 inhibitors” (ASCENTAGE PHARMA (SUZHOU) CO., LTD., priority 2019, dated 2022).)
